Measured values reported in PubChem BioAssay (NCI).
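Where inhibition never reached the appropriate level, the endpoint shown equals the highest concentration tested. Otherwise, values were interpolated linearly from a five-concentration, 48-hour dose response in 96-well plates. GI50 = concentration required for 50% inhibition of growth. TGI: total growth inhibition.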

What was measured:
Assay in all cases: NCI tumour cell line growth inhibition, 48 h
EKVX NSCLC = test system: EKVX NSCLC
HOP-92 NSCLC = test system: HOP-92 NSCLC
M14 melanoma = test system: M14 melanoma
MCF7 breast = test system: MCF7 breast
MDA-MB-231 breast = test system: MDA-MB-231 breast
NCI-H226 lung = test system: NCI-H226 lung
OVCAR-5 ovarian = test system: OVCAR-5 ovarian
RPMI-8226 leukemia = test system: RPMI-8226 leukemia
SK-OV-3 ovarian = test system: SK-OV-3 ovarian
SNB-75 CNS = test system: SNB-75 CNS

Row | Structure (SMILES) | GI50 (EKVX NSCLC) | TGI (EKVX NSCLC) | GI50 (HOP-92 NSCLC) | TGI (HOP-92 NSCLC) | GI50 (M14 melanoma) | TGI (M14 melanoma) | GI50 (MCF7 breast) | TGI (MCF7 breast) | GI50 (MDA-MB-231 breast) | TGI (MDA-MB-231 breast) | GI50 (NCI-H226 lung) | TGI (NCI-H226 lung) | GI50 (OVCAR-5 ovarian) | TGI (OVCAR-5 ovarian) | GI50 (RPMI-8226 leukemia) | TGI (RPMI-8226 leukemia) | GI50 (SK-OV-3 ovarian) | TGI (SK-OV-3 ovarian) | GI50 (SNB-75 CNS) | TGI (SNB-75 CNS)
1 | C[C@]12CC[C@H]3[C@@H](C[C@@H]4SC(Nc5ccccc5)=N[C@@]45CC(O)CC[C@]35C)[C@@H]1CCC2O (some centres undefined) | 2.75 µM | 9.26 µM | 2.84 µM | 6.77 µM | 1.84 µM | 4.27 µM | 1.8 µM | 4.73 µM | 1.99 µM | 4.63 µM | 2.4 µM | 5.57 µM | 2.68 µM | 7.86 µM | 0.465 µM | 2.47 µM | 5.16 µM | 17.9 µM | 1.49 µM | 3.05 µM
2 | Oc1cccc(/C=N/Nc2nnc(N/N=C/c3cccc(O)c3)c3ccccc23)c1 |  | 43.6 µM |  | 76.1 µM |  | > 100 µM |  | > 100 µM |  | 35.8 µM |  | 30.7 µM |  | > 100 µM |  | 92.2 µM |  | > 100 µM |  | 50.5 µM
3 | Cc1[nH]c(-c2nc3ccccc3[nH]2)c(C)c1C(=O)NC(C)C1CCCCC1 (centres undefined) | 11.4 µM | 23.7 µM | 10.2 µM | 25.3 µM | 3.28 µM | 17.8 µM | 4.01 µM | 19.2 µM | 10.4 µM | 29.4 µM | 13.9 µM | 37.3 µM | 15 µM | 29.2 µM | 4.35 µM | 17.7 µM | 15.3 µM | 34.4 µM | 3.62 µM | 16.4 µM
4 | C/C(=N\N=C(\[Se])N(C)C)c1ccccn1 |  | 11.6 µM |  | 13.1 µM |  | 3.24 µM |  | 8.15 µM |  | 30.7 µM |  | 5.27 µM |  | 7.31 µM |  | 53.2 µM |  | 10.2 µM |  | 15.5 µM
5 | CCc1cc2ncc(CN3CCN(c4ccc(C(=O)NC)nc4)CC3)cc2[nH]c1=O | 84.9 µM | > 100 µM | 12.3 µM | > 100 µM | 92.4 µM | > 100 µM | 29.4 µM | > 100 µM | 82 µM | > 100 µM | 14.7 µM | > 100 µM | > 100 µM | > 100 µM | 40.4 µM | > 100 µM | > 100 µM | > 100 µM | 18 µM | > 100 µM
6 | COc1cc2ncnc(Nc3ccc4c(cnn4Cc4ccccc4)c3)c2cc1OC | 0.0796 µM | > 25 µM | 0.434 µM | > 25 µM | > 25 µM | > 25 µM | > 25 µM | > 25 µM | 7.13 µM | > 25 µM | > 25 µM | > 25 µM | > 25 µM | > 25 µM | 11.2 µM | > 25 µM | 0.534 µM | > 25 µM | > 25 µM | > 25 µM
7 | COc1cc(N2CCN(C(C)C)CC2)ccc1Nc1nc(Nc2cccc(F)c2C(=O)O)c2cc[nH]c2n1 | > 25 µM | > 25 µM | 1.06 µM | > 25 µM | > 25 µM | > 25 µM | > 25 µM | > 25 µM | > 25 µM | > 25 µM | > 25 µM | > 25 µM | > 25 µM | > 25 µM | > 25 µM | > 25 µM | > 25 µM | > 25 µM | > 25 µM | > 25 µM
8 | Oc1ccc(CCNCc2cc3c(cc2Br)OCO3)cc1 |  | > 100 µM |  | > 100 µM |  | > 100 µM |  | > 100 µM |  | > 100 µM |  | > 100 µM |  | > 100 µM |  | > 100 µM |  | > 100 µM |  | 84.8 µM
9 | Cc1ccn2c(CCc3nnc4cc(C)ccn34)nnc2c1 |  | > 100 µM |  | > 100 µM |  | > 100 µM |  | > 100 µM |  | > 100 µM |  | > 100 µM |  | > 100 µM |  | > 100 µM |  | > 100 µM |  | > 100 µM
10 | O=C1C(=O)c2ccccc2C(O)=C1CCCc1ccc(C2CCCCCC2)cc1 | 0.939 µM | 50.6 µM | 3.01 µM | 24.9 µM | 1.86 µM | 21 µM | 0.513 µM | > 49 µM | 5.76 µM | 42.2 µM | 2.2 µM | 31.7 µM | 19.8 µM | > 100 µM | 0.463 µM | 13.9 µM | 2.85 µM | 54.6 µM | 2.5 µM | 52.2 µM
11 | CC(=O)C1=C(C)N(C)C2(O)C=CC(=O)C3=C(O)c4ccccc4C(=O)C312 (centres undefined) | 15.3 µM | 33.4 µM | 2.61 µM | 8.48 µM | 2.81 µM | 7.87 µM | 12.2 µM | 36.1 µM | 4.96 µM | 21.6 µM | 16 µM | 31.9 µM | 22.1 µM | 66.1 µM | 3.02 µM | 31.5 µM | 6.9 µM | 32.4 µM | 19.9 µM | 43.8 µM
12 | CCCCC(=O)N/N=C/c1c(O)ccc2ccccc12 | 1.75 µM | 7.92 µM | 2.01 µM | > 84.5 µM | 1.82 µM | 14.6 µM | 2.09 µM | 15.8 µM | 3.51 µM | > 94.8 µM | 13.7 µM | > 70.4 µM | 6.97 µM | > 100 µM | 0.247 µM | 1.57 µM | 3.04 µM | > 100 µM | 1.57 µM | > 100 µM
13 | COc1cc(C2C3=C(COC3=O)Nc3c2ccc2c3CCCC2)cc2c1OCO2 (centres undefined) | 0.0908 µM | > 100 µM | 0.364 µM | 20.8 µM | 0.033 µM | 67.4 µM | 0.0352 µM | 8.74 µM | 0.0779 µM |  | 0.0343 µM | 0.185 µM | 0.0897 µM | > 100 µM | 0.0479 µM | 75.3 µM | 0.0311 µM | 0.103 µM | 0.0251 µM | 14.5 µM
14 | c1cncc(C2Nc3cccc4cccc(c34)N2)c1 | 36 µM | > 100 µM | 22.3 µM | 61.2 µM | 46 µM | > 100 µM | 18.7 µM | 60.6 µM | 20.3 µM | 65.7 µM | 80.5 µM | > 100 µM | 88.7 µM | > 100 µM | 33.9 µM | > 100 µM | > 100 µM | > 100 µM | 17.9 µM | > 100 µM
15 | COC(=O)C(CBr)CBr |  | 21.5 µM |  | 3.63 µM |  | 4.72 µM |  | 20.6 µM |  | 4.36 µM |  | 28.1 µM |  | 31.2 µM |  | 3.97 µM |  | 33.8 µM |  | 31.4 µM
16 | Cc1cc(C(=O)O)c(C)n1-c1cccc(C(=O)O)c1 | > 100 µM | > 100 µM | > 100 µM | > 100 µM | > 100 µM | > 100 µM | > 100 µM | > 100 µM | > 100 µM | > 100 µM | > 100 µM | > 100 µM | > 100 µM | > 100 µM | > 100 µM | > 100 µM | > 100 µM | > 100 µM | > 100 µM | > 100 µM
17 | CCOC(=O)c1c(C)nc2c(c1N)CC(=O)N2CCc1ccccc1 | 6.06 µM | 68.8 µM | 0.496 µM | 18.7 µM | 0.845 µM | 3.47 µM | 0.306 µM | 17.1 µM | 0.896 µM | 14 µM | 18.7 µM | 69 µM | 8.2 µM | 24.9 µM | 0.345 µM | 5.6 µM | 8.46 µM | 36.7 µM | 1.37 µM | 18.1 µM
